Results as given in patent publication EP3325012B1, “CINEOLE-CONTAINING COMPOSITION FOR TREATING NOSE POLYPS” (Maria Clementine Martin Klosterfrau Vertriebsgesellschaft …, priority 2015, dated 2017).

Legend:
GSK-3-alpha/beta = experiment: Western blot of phospho-GSK-3 (Ser-9/-21) in nasal polyp samples; format: cell-based, Mensch; settings: 100 µM, 24 h (Figur 4A)
Description: Lysate von Geweben wurden durch Erhitzen über einen Zeitraum von 5 Minuten in einfachem SDS-Probenpuffer (Carl Roth GmbH, Karlsruhe, Deutschland) denaturiert. Die Proteinkonzentrationen wurden mittels des Bradford-Tests bestimmt und jeweils 30 µg Gesamtprotein wurden zur SDS-Polyacrylamid-Gel Elektrophorese eingesetzt (Mini-Protean TGX®, Any kD, BioRad, Hercules, CA, USA) und anschließend auf Nitrozellulosemembranen übertragen. Die Übertragung der Proteine wurde mittels Ponceau-Färbung kontrolliert. […]
Um die Beladungsmenge jeder Spur zu bestimmen, wurden die Nitrozellulosemembranen über Nacht bei 4 °C mit einem primären Antikörper der GAPDH (Cell Signaling Technology Inc., Massachusetts, Katalognummer: 14C10) in einer Verdünnung von 1 : 1.000 inkubiert. […] Die Pixeldichten wurden quantifiziert und mittels Fusion FX7® unter Einsatz von Bio-1D Software® dokumentiert. […]

GSK-3 = experiment: Immunohistochemistry, subcellular (endolysosomal) localisation of GSK-3; format: cell-based, Mensch; settings: 100 µM, versus control medium (Figur 4B)
Source text: Frische eingefrorene Gewebeschnitte wurden für 10 Minuten in 100 % Methanol fixiert. Nach einer Trocknungszeit von 10 Minuten wurden die Schnitte bei Raumtemperatur mit TBS (RT-TBS) gewaschen. Danach wurden die Gewebeproben zur Inhibition der endogenen Peroxidase 15 Minuten lang in RT-TBS mit 3 % H2O2 inkubiert.
Nach einem Waschschritt mit RT-TBS wurden die Proben in TBS mit 0,3 % Triton X für 15 Minuten permeabilisiert. Die Schnitte wurden in einer 1 : 100-Verdünnung mit Anti-Phospho-GSK-3-alpha/beta-Antikörpern (Cell Signaling Technology Inc., Massachusetts, USA, Katalognummern 5676 und 9331) über Nacht bei 4 °C inkubiert.
Am nächsten Tag wurden die Objektträger mit RT-TBS gewaschen und danach für 20 Minuten bei Raumtemperatur mit einem sekundären Polylink-Antikörper inkubiert. Nach dem Waschen mit RT-TBS wurden die Proben mit Peroxidase-Marker (HRP) (beide DCS Detection line, Innovative Diagnostik-Systeme, Hamburg, Deutschland) inkubiert.
Nach dem Waschen mit RT-PBS wurden die Schnitte in AEC (DCS Chromoline, Innovative Diagnostik-Systeme, Hamburg, Deutschland) inkubiert. Die Reaktion wurde mit RT-TBS gestoppt. Schließlich wurde eine Zellkernfärbung mit Mayer's Haematoxylin durchgeführt. Die Schnitte wurden in wässrigem "Dako Faramount Medium" (Dako North America Inc., Carpinteria, CA, USA) eingebettet. […]

Akt = experiment: Western blot of Akt and P-Akt in nasal polyp protein extracts; format: cell-based, Mensch; settings: 100 µM; all analysed protein extracts of nasal polyps (Figur 5)
Description: Lysate von Geweben wurden durch Erhitzen über einen Zeitraum von 5 Minuten in einfachem SDS-Probenpuffer (Carl Roth GmbH, Karlsruhe, Deutschland) denaturiert. Die Proteinkonzentrationen wurden mittels des Bradford-Tests bestimmt und jeweils 30 µg Gesamtprotein wurden zur SDS-Polyacrylamid-Gel Elektrophorese eingesetzt (Mini-Protean TGX®, Any kD, BioRad, Hercules, CA, USA) und anschließend auf Nitrozellulosemembranen übertragen. Die Übertragung der Proteine wurde mittels Ponceau-Färbung kontrolliert.
Neben der Phosphorylierung an Serin-9/-21 wird die GSK-3-Aktivität auch auf dem Level seiner subzellulären Lokalisierung reguliert. GSK-3 kann zur Trennung von seinen Substraten in endolysosomale Vesikel verlagert werden, um die Kinase-Aktivität zu verringern. […] GSK-3 ist in die Regulation von zahlreichen biosynthetischen Signalwegen involviert und zahlreiche Kinasen sind in der Lage, die GSK-3-Aktivität durch Phosphorylierung an dessen aktivierenden oder hemmenden Phosphorylierungsstellen zu regulieren. Die Akt-Kinase (auch bekannt als PKB) wurde als Onkogen mit Serin/Threonin-Kinase-Aktivität identifiziert und es wurde gezeigt, dass diese in vivo einen negativen Regulator der GSK3-beta Aktivität darstellt. Akt kann durch Phosphorylierung an Serin-473 durch PDK1 aktiviert werden, wobei davon ausgegangen wird, dass PHLPP als Inhibitor von dessen Phosphorylierung fungiert. […]

HNSCC-Zelllinien = experiment: MTT assay, vitality and proliferation of HNSCC cell lines; format: cell-based; settings: 1 mM bis 10 mM, 250 Stunden, two cell lines
Description: (§1) Es wurden weiterführende Untersuchungen durchgeführt zur Analyse des Einflusses von Cineol auf die Vitalität und Proliferation verschiedener permanenter Zelllinien. Hierzu wurden einerseits die zwei HNSCC-Zelllinien und des Weiteren eine Fibroblastenzelllinie verwendet. Diese wurden über einen Zeitraum von 250 Stunden mit verschiedenen Cineol-Konzentrationen kultiviert (1 mM bis 10 mM) und die Vitalität der Zellen wurde jeweils mittels eines MTT-Assays untersucht.

Fibroblastenzelllinie = experiment: MTT assay, vitality and proliferation of a fibroblast cell line; format: cell-based; settings: 1 mM bis 10 mM, 250 Stunden
Description: as §1

`CC12CCC(CC1)C(C)(C)O2` [1,8-Cineol, 1,3,3-Trimethyl-2-oxabicyclo[2.2.2]octan] was tested, and the “Phosphorylierung von GSK-3-alpha/beta an Serin-9/-21” value (GSK-3-alpha/beta) was “verringerten Phosphorylierung”, the “endolysosomale Lokalisierung von GSK-3” value (GSK-3) was “verringerte endolysosomale Lokalisierung” and the “Phosphorylierungslevel von Akt an Serin-473” value (Akt) was “nicht wesentlich beeinflusst”. The “Progression und Vitalität von HNSCC” value (HNSCC-Zelllinien) was “inhibierender Einfluss” and the “Progression und Vitalität von Fibroblasten” value (Fibroblastenzelllinie) was “inhibierender Einfluss”.
